Measurements: paper PMC8247115 (Cell, 2020)

Assays:
CB2 [1] = target: T1, CB2 (Homo sapiens, UniProt P34972); conditions: read-out: Ki CB2; partial agonist on CB2; ref Dhopeshwarkar et al., 2017; cited from earlier work
CB1 = conditions: read-out: Ki CB1; antagonist on CB1; ref Dhopeshwarkar et al., 2017; cited from earlier work
CB2 [2] = target: T1, CB2; assay: cell-based; type: cell-based; conditions: for functional behaviour at CB2: cAMP functional assay

T1 sequence (P34972 whole entry): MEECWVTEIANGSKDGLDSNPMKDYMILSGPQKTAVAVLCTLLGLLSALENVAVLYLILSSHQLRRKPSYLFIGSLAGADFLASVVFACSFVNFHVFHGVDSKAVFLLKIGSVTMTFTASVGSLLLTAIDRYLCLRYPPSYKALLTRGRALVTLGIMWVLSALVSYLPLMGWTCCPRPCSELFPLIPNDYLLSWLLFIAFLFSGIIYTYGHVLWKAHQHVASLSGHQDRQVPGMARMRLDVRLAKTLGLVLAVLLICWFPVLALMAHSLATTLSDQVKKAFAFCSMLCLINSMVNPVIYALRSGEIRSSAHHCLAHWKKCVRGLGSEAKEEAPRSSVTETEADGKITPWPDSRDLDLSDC

For `COc1ccc2c(c1)c(CCN1CCOCC1)c(C)n2C(=O)c1cccc(Cl)c1Cl` [GW-405,833], which Ki (CB2 [1]) is on record?
The Ki was 0.00392 ± 0.00158 µM.

What about the Ki (CB1) of the same compound?
The Ki was 4.77 ± 1.68 µM.

For `CCN(CC)c1ccc(CN(Cc2cc(OC)c(OC)c(OC)c2)S(=O)(=O)/C=C/c2ccccc2)cc1` [XIE55, (E)-N-(4-(diethylamino)benzyl)-2-phenyl-N-(3,4,5-trimethoxybenzyl)ethene-1-sulfonamide], which EC50 (CB2 [2]) is on record?
Its EC50 is 1.5 ± 0.4 µM.

And the “functional behaviour at CB2” value (CB2 [2])?
The value was “inverse agonist”.

For `CCN(CC)c1ccc(CN(Cc2cc(OC)c(OC)c(OC)c2)S(=O)(=O)c2cccs2)cc1` [XIE57, N-(4-(diethylamino)benzyl)-N-(3,4,5-trimethoxybenzyl)thiophene-2-sulfonamide], which EC50 (CB2 [2]) is on record?
The EC50 was 6.9 ± 2.9 µM.

And the “functional behaviour at CB2” value (CB2 [2])?
Its value is “partial agonist”.
